Results: patent publication US20250136606A1, “MODULATORS OF TRPML, THEIR COMPOSITIONS AND METHODS OF USE” (Caraway Therapeutics, Inc., priority 2021, published 2025)

What was measured:
Assay type in all cases: cell-based
Conditions in all cases: fluorescent calcium assay
TRPML1 = TRPML1 (Homo sapiens, UniProt Q9GZU1); test: Fluorescent TRPML1 assay (Fluo4-AM calcium fluorescence in doxycycline-induced HEK-293 Trex cells)
Outline: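 HEK-293 Trex cells stably carrying human TRPML1 (surface-trafficking mutant) were induced overnight with 0.5 ug/mL doxycycline, loaded with 1 micromolar Fluo4-AM, and suspended in Ringer's with 10 mM calcium. Compounds at 20 micromolar to 6 nanomolar final, half-log steps, triplicate; fluorescence 480/540 nm gave percent activity versus controls and EC50 by non-linear regression.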

TRPML3 = target: T1, TRPML3 (Homo sapiens, UniProt Q8TDD5); test: Fluorescent TRPML3 assay (performed as for TRPML1, substituting the TRPML3 subtype)
T1 construct: expressed in transfected cells
T1 sequence (Q8TDD5 1-553): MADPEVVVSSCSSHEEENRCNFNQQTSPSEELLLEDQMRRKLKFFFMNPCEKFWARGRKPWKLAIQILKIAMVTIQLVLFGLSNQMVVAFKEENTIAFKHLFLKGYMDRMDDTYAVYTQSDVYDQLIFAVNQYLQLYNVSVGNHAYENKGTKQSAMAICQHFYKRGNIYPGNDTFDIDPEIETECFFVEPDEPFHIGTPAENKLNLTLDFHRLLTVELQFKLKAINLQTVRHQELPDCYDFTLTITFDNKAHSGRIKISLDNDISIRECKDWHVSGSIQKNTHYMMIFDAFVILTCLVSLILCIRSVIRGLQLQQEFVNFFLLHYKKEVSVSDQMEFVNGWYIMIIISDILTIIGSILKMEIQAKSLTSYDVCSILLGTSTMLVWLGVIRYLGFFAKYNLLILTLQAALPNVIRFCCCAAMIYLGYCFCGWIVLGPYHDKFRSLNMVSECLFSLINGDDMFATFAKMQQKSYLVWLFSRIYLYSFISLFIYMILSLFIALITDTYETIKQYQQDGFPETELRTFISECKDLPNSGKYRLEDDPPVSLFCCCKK
Outline: (§1)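 HEK-293 Trex, dox-induced (0.5 ug/mL), mutated for surface expression. Fluo4-AM 1 micromolar load ~60 min, dark; buffer modified Ringer's, 10 mM Ca. Cpds 20 micromolar–6 nanomolar final, half-log, n=3. Read ex 480/em 540; % activity vs controls; EC50 nonlinear fit.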

TRPML2 = target: T2, TRPML2 (Homo sapiens, UniProt Q8IZK6); test: Fluorescent TRPML2 assay (performed as for TRPML1, substituting the TRPML2 subtype)
T2 construct: expressed in transfected cells
T2 sequence (Q8IZK6 1-566): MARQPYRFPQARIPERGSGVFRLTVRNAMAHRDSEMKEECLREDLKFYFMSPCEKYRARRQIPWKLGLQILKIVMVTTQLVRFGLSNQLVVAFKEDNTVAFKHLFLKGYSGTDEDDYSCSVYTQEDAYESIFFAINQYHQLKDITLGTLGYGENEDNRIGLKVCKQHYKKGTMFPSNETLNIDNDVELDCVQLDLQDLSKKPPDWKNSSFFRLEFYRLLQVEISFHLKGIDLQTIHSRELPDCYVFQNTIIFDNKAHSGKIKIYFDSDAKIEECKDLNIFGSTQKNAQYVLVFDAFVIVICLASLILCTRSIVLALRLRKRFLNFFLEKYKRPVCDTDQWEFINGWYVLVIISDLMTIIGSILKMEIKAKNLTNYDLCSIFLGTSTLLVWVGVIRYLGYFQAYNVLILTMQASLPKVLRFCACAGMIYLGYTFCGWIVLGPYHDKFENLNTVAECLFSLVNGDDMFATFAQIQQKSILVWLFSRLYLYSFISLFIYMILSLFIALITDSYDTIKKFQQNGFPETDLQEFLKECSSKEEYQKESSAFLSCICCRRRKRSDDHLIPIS
Outline: as §1

TRPML1, sequence (Q9GZU1 whole entry L15A/L16A/L577A/L578A, form open): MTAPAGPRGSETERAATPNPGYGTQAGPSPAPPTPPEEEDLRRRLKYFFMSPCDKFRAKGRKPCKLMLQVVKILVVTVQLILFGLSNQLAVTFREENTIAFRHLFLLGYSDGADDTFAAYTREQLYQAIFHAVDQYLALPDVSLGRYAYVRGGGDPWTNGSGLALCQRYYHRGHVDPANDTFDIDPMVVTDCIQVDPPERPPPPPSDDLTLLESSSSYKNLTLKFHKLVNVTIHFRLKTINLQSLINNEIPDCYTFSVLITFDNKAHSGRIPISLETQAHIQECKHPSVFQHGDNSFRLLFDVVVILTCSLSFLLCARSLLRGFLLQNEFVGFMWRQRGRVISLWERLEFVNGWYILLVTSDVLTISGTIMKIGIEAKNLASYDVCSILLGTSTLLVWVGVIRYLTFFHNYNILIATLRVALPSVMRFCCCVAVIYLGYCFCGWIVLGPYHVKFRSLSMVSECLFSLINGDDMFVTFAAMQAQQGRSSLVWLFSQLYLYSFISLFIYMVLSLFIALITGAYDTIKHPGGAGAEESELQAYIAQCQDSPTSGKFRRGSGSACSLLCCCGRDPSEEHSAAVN

Structure (SMILES) | EC50 (TRPML1) | EC50 (TRPML3) | EC50 (TRPML2)
CCN(CC)c1cn(-c2cc(C#N)ccn2)c2ncnc(N3CCN(C(=O)OC(C)(C)C)[C@H](C)C3)c12 [Compound 425, tert-butyl (R)-4-(7-(4-cyanopyridin-2-yl)-5-(diethylamino)-7H-pyrrolo[2,3-d]pyrimidin-4-yl)-2-methylpiperazine-1-carboxylate] | < 100 nM | < 100 nM | 100 to 500 nM
C[C@@H]1CN(c2ncnc3c2c(N(C)C)cn3-c2cc(C#N)ccn2)CCN1C(=O)OC(C)(C)C [Compound 427, tert-Butyl (R)-4-(7-(4-cyanopyridin-2-yl)-5-(dimethylamino)-7H-pyrrolo[2,3-d]pyrimidin-4-yl)-2-methylpiperazine-1-carboxylate] | < 100 nM | < 100 nM | < 100 nM
CC(C)(C)OC(=O)N1CCN(c2ncnc3c2c(C2CC2)cn3-c2cc(C#N)ccn2)C2(CC2)C1 [Compound 429, tert-butyl 4-(7-(4-cyanopyridin-2-yl)-5-cyclopropyl-7H-pyrrolo[2,3-d]pyrimidin-4-yl)-4,7-diazaspiro[2.5]octane-7-carboxylate] | < 100 nM | < 100 nM | < 100 nM
C[C@@H]1CN(c2ncnc3c2c(N(C)C)cn3-c2cccc(Cl)c2)CCN1C(=O)OC(C)(C)C [Compound 430, tert-butyl (R)-4-(7-(3-chlorophenyl)-5-(dimethylamino)-7H-pyrrolo[2,3-d]pyrimidin-4-yl)-2-methylpiperazine-1-carboxylate] | < 100 nM | < 100 nM | 100 to 500 nM
C[C@H]1CN(C(=O)OC(C)(C)C)CCN1c1ncnc2c1c(C1CC1)cn2-c1cc(C#N)ncn1 [Compound 431, tert-butyl (S)-4-(7-(6-cyanopyrimidin-4-yl)-5-cyclopropyl-7H-pyrrolo[2,3-d]pyrimidin-4-yl)-3-methylpiperazine-1-carboxylate] | 100 to 500 nM | < 100 nM | 500 to 2000 nM
C[C@H]1CN(C(=O)OC(C)(C)C(F)(F)F)CCN1c1ncnc2c1c(C1CCC1)cn2-c1cc(C#N)ccn1 [Compound 436, 1,1,1-trifluoro-2-methylpropan-2-yl(S)-4-(7-(4-cyanopyridin-2-yl)-5-cyclobutyl-7H-pyrrolo[2,3-d]pyrimidin-4-yl)-3-methylpiperazine-1-carboxylate] | < 100 nM | < 100 nM | 100 to 500 nM
C[C@H]1CN(C(=O)OC(C)(C)C)CCN1c1ncnc2c1c(C1CC1)cn2-c1cc(C#N)cnn1 [Compound 439, tert-butyl (S)-4-(7-(5-cyanopyridazin-3-yl)-5-cyclopropyl-7H-pyrrolo[2,3-d]pyrimidin-4-yl)-3-methylpiperazine-1-carboxylate] | 100 to 500 nM | < 100 nM | 500 to 2000 nM
CCN(CC)c1cn(-c2cc(C#N)ccn2)c2ncnc(N3CCN(C(=O)OC(C)(C)C)CC3)c12 [Compound 441, tert-butyl 4-(7-(4-cyanopyridin-2-yl)-5-(diethylamino)-7H-pyrrolo[2,3-d]pyrimidin-4-yl)piperazine-1-carboxylate] | 100 to 500 nM | 100 to 500 nM | > 2000 nM
C[C@H]1CN(C(=O)OC(C)(C)C)CCN1c1ncnc2c1c(N(C)C1CC1)cn2-c1cc(C#N)ccn1 [Compound 442, tert-butyl (S)-4-(7-(4-cyanopyridin-2-yl)-5-(cyclopropyl(methyl)amino)-7H-pyrrolo[2,3-d]pyrimidin-4-yl)-3-methylpiperazine-1-carboxylate] | < 100 nM | < 100 nM | 500 to 2000 nM
CC(C)N(C)c1cn(-c2cc(C#N)ccn2)c2ncnc(N3CCN(C(=O)OC(C)(C)C)C[C@@H]3C)c12 [Compound 443, tert-butyl (S)-4-(7-(4-cyanopyridin-2-yl)-5-(isopropyl(methyl)amino)-7H-pyrrolo[2,3-d]pyrimidin-4-yl)-3-methylpiperazine-1-carboxylate] | < 100 nM | < 100 nM | < 100 nM

Continued, values first:

EC50 (TRPML1) | EC50 (TRPML3) | EC50 (TRPML2) | Structure (SMILES)
< 100 nM | < 100 nM | 100 to 500 nM | CCN(CC)c1cn(-c2cc(C#N)ccn2)c2ncnc(N3CCN(C(=O)OC(C)(C)C)C[C@@H]3C)c12 [Compound 424, tert-butyl (S)-4-(7-(4-cyanopyridin-2-yl)-5-(diethylamino)-7H-pyrrolo[2,3-d]pyrimidin-4-yl)-3-methylpiperazine-1-carboxylate]
< 100 nM | < 100 nM | < 100 nM | C[C@H]1CN(C(=O)OC(C)(C)C)CCN1c1ncnc2c1c(N(C)C)cn2-c1cc(C#N)ccn1 [Compound 426, tert-butyl (S)-4-(7-(4-cyanopyridin-2-yl)-5-(dimethylamino)-7H-pyrrolo[2,3-d]pyrimidin-4-yl)-3-methylpiperazine-1-carboxylate]
< 100 nM | < 100 nM | < 100 nM | C[C@H]1CN(C(=O)OC(C)(C)C)CCN1c1ncnc2c1c(-c1ccccc1F)cn2-c1ncc(C#N)s1 [Compound 428, tert-butyl (S)-4-(7-(5-cyanothiazol-2-yl)-5-(2-fluorophenyl)-7H-pyrrolo[2,3-d]pyrimidin-4-yl)-3-methylpiperazine-1-carboxylate]
100 to 500 nM | < 100 nM | 500 to 2000 nM | C[C@H]1CN(C(=O)OC(C)(C)C)CCN1c1ncnc2c1c(C1CC1)cn2-c1nccc(C#N)n1 [Compound 432, tert-Butyl (S)-4-(7-(4-cyanopyrimidin-2-yl)-5-cyclopropyl-7H-pyrrolo[2,3-d]pyrimidin-4-yl)-3-methylpiperazine-1-carboxylate]
100 to 500 nM | 100 to 500 nM | 500 to 2000 nM | C[C@H]1CN(C(=O)OC(C)(C)C)CCN1c1ncnc2c1c(-c1ccccc1F)cn2-c1nc(C#N)cs1 [Compound 433, tert-butyl (S)-4-(7-(4-cyanothiazol-2-yl)-5-(2-fluorophenyl)-7H-pyrrolo[2,3-d]pyrimidin-4-yl)-3-methylpiperazine-1-carboxylate]
< 100 nM | < 100 nM | < 100 nM | C[C@@H]1CN(c2ncnc3c2c(-c2ccccc2F)cn3-c2ncc(C#N)s2)[C@@H](C)CN1C(=O)OC(C)(C)C [Compound 434, tert-butyl (2R,5S)-4-(7-(5-cyanothiazol-2-yl)-5-(2-fluorophenyl)-7H-pyrrolo[2,3-d]pyrimidin-4-yl)-2,5-dimethylpiperazine-1-carboxylate]
< 100 nM | < 100 nM | < 100 nM | CC(C)(C)OC(=O)N1CCN(c2ncnc3c2c(-c2ccccc2F)cn3-c2cc(C#N)ccn2)C2(CC2)C1 [Compound 435, tert-butyl 4-(7-(4-cyanopyridin-2-yl)-5-(2-fluorophenyl)-7H-pyrrolo[2,3-d]pyrimidin-4-yl)-4,7-diazaspiro[2.5]octane-7-carboxylate]
< 100 nM | < 100 nM | < 100 nM | C[C@H]1CN(C(=O)OC(C)(C)C)CCN1c1ncnc2c1c(-c1ccccc1F)cn2-c1cc(C#N)ncn1 [Compound 437, tert-butyl (S)-4-(7-(6-cyanopyrimidin-4-yl)-5-(2-fluorophenyl)-7H-pyrrolo[2,3-d]pyrimidin-4-yl)-3-methylpiperazine-1-carboxylate]
< 100 nM | < 100 nM | 500 to 2000 nM | C[C@H]1CN(C(=O)OC(C)(C)C)CCN1c1ncnc2c1c(-c1ccccc1F)cn2-c1nccc(C#N)n1 [Compound 438, tert-butyl (S)-4-(7-(4-cyanopyrimidin-2-yl)-5-(2-fluorophenyl)-7H-pyrrolo[2,3-d]pyrimidin-4-yl)-3-methylpiperazine-1-carboxylate]
> 2000 nM | 500 to 2000 nM | > 2000 nM | C[C@H]1CN(C(=O)OC(C)(C)C)CCN1c1ncnc2c1c(C1CC1)cn2-c1ncc(C#N)[nH]1 [Compound 440, tert-butyl (S)-4-(7-(5-cyano-1H-imidazol-2-yl)-5-cyclopropyl-7H-pyrrolo[2,3-d]pyrimidin-4-yl)-3-methylpiperazine-1-carboxylate]
